Assay type in all cases: in vivo
In one assay the test system is Digitaria sanguinalis. Nature of the assay: Post-emergence test experiment, Digitaria sanguinalis. As to conditions: 1000 g a.i./ha, 3 weeks in greenhouse, fresh weight inhibition. In outline:
(§1)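 Greenhouse post-emergence spray at 2-3 leaf stage (2 wk after sowing); acetone/tween-80 formulation, methyl oleate EC synergist 1.5 L/ha, water-diluted. Plants held 3 wk, then fresh weight inhibition rate read.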

The test system of a further assay is Echinochloa crusgalli. Description: Post-emergence test experiment, Echinochloa crusgalli. The note with it: 1000 g a.i./ha, 3 weeks in greenhouse, fresh weight inhibition. The procedure, abridged: as §1
Assay [1] has as its system Monocotyledonous and dicotyledonous weed seeds and main crop seeds. Nature of the assay: Post-emergence test experiment, other weeds and crops (Table 4, 1000 g a.i./ha). The note with it: 3 weeks in greenhouse, fresh weight inhibition. In outline: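 Growth inhibition is scored on fresh weight. Spray solutions were made in acetone with tween-80, diluted in water, plus 1.5 L/ha methyl oleate emulsible concentrate. Plants from greenhouse-grown weed and crop seeds were treated post-emergence at 2-3 leaves, 2 weeks after sowing.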

With `CCCCCCCSC(=O)[C@@H](C)Oc1nc(F)c(Cl)c(N)c1Cl` [Compound 2-122], the “Activity level (growth inhibition rate), Digitaria sanguinalis” value in the assay with Digitaria sanguinalis was 5 (Level 5: the growth inhibition rate is greater than 85%). The “Activity level (growth inhibition rate), Echinochloa crusgalli” value in the assay with Echinochloa crusgalli is given as 5 (Level 5: the growth inhibition rate is greater than 85%). In addition, in assay [1], the “Activity level (growth inhibition rate), Abutilon theophrasti Medic.” value was 5 (Level 5: the growth inhibition rate is greater than 85%); the “Activity level (growth inhibition rate), Galium aparine” value is 5 (Level 5: the growth inhibition rate is greater than 85%); the “Activity level (growth inhibition rate), Monochoria Vaginalis” value is reported as 5 (Level 5: the growth inhibition rate is greater than 85%).

For `CC(Oc1nc(F)c(Cl)c(N)c1Cl)C(=O)OCC=CCl` (stereo not shown) [Compound 2-285], the “Activity level (growth inhibition rate), Digitaria sanguinalis” value with Digitaria sanguinalis is 5 (Level 5: the growth inhibition rate is greater than 85%). Also, the “Activity level (growth inhibition rate), Echinochloa crusgalli” value in the assay with Echinochloa crusgalli is on record as 5 (Level 5: the growth inhibition rate is greater than 85%). For the same compound, in assay [1], the “Activity level (growth inhibition rate), Abutilon theophrasti Medic.” value is reported as 5 (Level 5: the growth inhibition rate is greater than 85%); the “Activity level (growth inhibition rate), Galium aparine” value is recorded as 5 (Level 5: the growth inhibition rate is greater than 85%); the “Activity level (growth inhibition rate), Monochoria Vaginalis” value is 5 (Level 5: the growth inhibition rate is greater than 85%).

Take `CC(Oc1nc(F)c(Cl)c(N)c1Cl)C(=O)OCc1ccc(F)cc1` (stereo not shown) [Compound 2-312]: the “Activity level (growth inhibition rate), Digitaria sanguinalis” value in the assay on Digitaria sanguinalis is recorded as 5 (Level 5: the growth inhibition rate is greater than 85%). Besides, in the assay with Echinochloa crusgalli, the “Activity level (growth inhibition rate), Echinochloa crusgalli” value is listed as 5 (Level 5: the growth inhibition rate is greater than 85%). For the same compound, in assay [1], the “Activity level (growth inhibition rate), Abutilon theophrasti Medic.” value is recorded as 5 (Level 5: the growth inhibition rate is greater than 85%); the “Activity level (growth inhibition rate), Galium aparine” value is given as 5 (Level 5: the growth inhibition rate is greater than 85%); the “Activity level (growth inhibition rate), Monochoria Vaginalis” value is listed as 5 (Level 5: the growth inhibition rate is greater than 85%).

For `C[C@@H](Oc1nc(F)c(Cl)c(N)c1Cl)C(=O)OCCBr` [Compound 2-278], the “Activity level (growth inhibition rate), Digitaria sanguinalis” value in the assay with Digitaria sanguinalis is listed as 5 (Level 5: the growth inhibition rate is greater than 85%). Further, the “Activity level (growth inhibition rate), Echinochloa crusgalli” value with Echinochloa crusgalli is given as 5 (Level 5: the growth inhibition rate is greater than 85%). Moreover, in assay [1], the “Activity level (growth inhibition rate), Abutilon theophrasti Medic.” value is 5 (Level 5: the growth inhibition rate is greater than 85%); the “Activity level (growth inhibition rate), Galium aparine” value is reported as 5 (Level 5: the growth inhibition rate is greater than 85%); the “Activity level (growth inhibition rate), Monochoria Vaginalis” value is 5 (Level 5: the growth inhibition rate is greater than 85%).

For `CC(Oc1nc(F)c(Cl)c(N)c1Cl)C(=O)[S-].CC(Oc1nc(F)c(Cl)c(N)c1Cl)C(=O)[S-].[Ca+2]` (stereo not shown) [Compound 2-2], the “Activity level (growth inhibition rate), Digitaria sanguinalis” value in the assay with Digitaria sanguinalis is listed as 5 (Level 5: the growth inhibition rate is greater than 85%). For the same compound, the “Activity level (growth inhibition rate), Echinochloa crusgalli” value in the assay on Echinochloa crusgalli is given as 5 (Level 5: the growth inhibition rate is greater than 85%). In assay [1], the “Activity level (growth inhibition rate), Abutilon theophrasti Medic.” value was 5 (Level 5: the growth inhibition rate is greater than 85%); the “Activity level (growth inhibition rate), Galium aparine” value is 5 (Level 5: the growth inhibition rate is greater than 85%); the “Activity level (growth inhibition rate), Monochoria Vaginalis” value is 5 (Level 5: the growth inhibition rate is greater than 85%).

With `CC(C)C(C)SC(=O)[C@@H](C)Oc1nc(F)c(Cl)c(N)c1Cl` (stereo partly shown) [Compound 2-96], in the assay with Digitaria sanguinalis, the “Activity level (growth inhibition rate), Digitaria sanguinalis” value was 5 (Level 5: the growth inhibition rate is greater than 85%). Besides, the “Activity level (growth inhibition rate), Echinochloa crusgalli” value in the assay on Echinochloa crusgalli is reported as 5 (Level 5: the growth inhibition rate is greater than 85%). In assay [1], the “Activity level (growth inhibition rate), Abutilon theophrasti Medic.” value is 5 (Level 5: the growth inhibition rate is greater than 85%); the “Activity level (growth inhibition rate), Galium aparine” value is given as 5 (Level 5: the growth inhibition rate is greater than 85%); the “Activity level (growth inhibition rate), Monochoria Vaginalis” value is reported as 5 (Level 5: the growth inhibition rate is greater than 85%).

Turning to `CC(Oc1nc(F)c(Cl)c(N)c1Cl)C(=O)OCC(Cl)=C(Cl)Cl` (stereo not shown) [Compound 2-286], the “Activity level (growth inhibition rate), Digitaria sanguinalis” value with Digitaria sanguinalis is given as 5 (Level 5: the growth inhibition rate is greater than 85%). For the same compound, in the assay on Echinochloa crusgalli, the “Activity level (growth inhibition rate), Echinochloa crusgalli” value was 5 (Level 5: the growth inhibition rate is greater than 85%). In assay [1], the “Activity level (growth inhibition rate), Abutilon theophrasti Medic.” value is reported as 5 (Level 5: the growth inhibition rate is greater than 85%); the “Activity level (growth inhibition rate), Galium aparine” value is recorded as 5 (Level 5: the growth inhibition rate is greater than 85%); the “Activity level (growth inhibition rate), Monochoria Vaginalis” value is on record as 5 (Level 5: the growth inhibition rate is greater than 85%).

Regarding `CCC(C)CCSC(=O)[C@@H](C)Oc1nc(F)c(Cl)c(N)c1Cl` (stereo partly shown) [Compound 2-106], in the assay on Digitaria sanguinalis, the “Activity level (growth inhibition rate), Digitaria sanguinalis” value was 5 (Level 5: the growth inhibition rate is greater than 85%). The “Activity level (growth inhibition rate), Echinochloa crusgalli” value in the assay with Echinochloa crusgalli is reported as 5 (Level 5: the growth inhibition rate is greater than 85%). Further, in assay [1], the “Activity level (growth inhibition rate), Abutilon theophrasti Medic.” value was 5 (Level 5: the growth inhibition rate is greater than 85%); the “Activity level (growth inhibition rate), Galium aparine” value is 5 (Level 5: the growth inhibition rate is greater than 85%); the “Activity level (growth inhibition rate), Monochoria Vaginalis” value is listed as 5 (Level 5: the growth inhibition rate is greater than 85%).

As for `CC(Oc1nc(F)c(Cl)c(N)c1Cl)C(=O)SCc1ccc(Br)cc1` (stereo not shown) [Compound 2-325], in the assay with Digitaria sanguinalis, the “Activity level (growth inhibition rate), Digitaria sanguinalis” value was 5 (Level 5: the growth inhibition rate is greater than 85%). Also, the “Activity level (growth inhibition rate), Echinochloa crusgalli” value with Echinochloa crusgalli is 5 (Level 5: the growth inhibition rate is greater than 85%). For the same compound, in assay [1], the “Activity level (growth inhibition rate), Abutilon theophrasti Medic.” value is 5 (Level 5: the growth inhibition rate is greater than 85%); the “Activity level (growth inhibition rate), Galium aparine” value is recorded as 5 (Level 5: the growth inhibition rate is greater than 85%); the “Activity level (growth inhibition rate), Monochoria Vaginalis” value is reported as 5 (Level 5: the growth inhibition rate is greater than 85%).

Turning to `Cc1ccc(CSC(=O)C(C)Oc2nc(F)c(Cl)c(N)c2Cl)cc1` (stereo not shown) [Compound 2-307], the “Activity level (growth inhibition rate), Digitaria sanguinalis” value in the assay with Digitaria sanguinalis is 5 (Level 5: the growth inhibition rate is greater than 85%). In addition, the “Activity level (growth inhibition rate), Echinochloa crusgalli” value in the assay with Echinochloa crusgalli is 5 (Level 5: the growth inhibition rate is greater than 85%). Moreover, in assay [1], the “Activity level (growth inhibition rate), Abutilon theophrasti Medic.” value is listed as 5 (Level 5: the growth inhibition rate is greater than 85%); the “Activity level (growth inhibition rate), Galium aparine” value is 5 (Level 5: the growth inhibition rate is greater than 85%); the “Activity level (growth inhibition rate), Monochoria Vaginalis” value is 5 (Level 5: the growth inhibition rate is greater than 85%).

In the case of `Cc1ccccc1CSC(=O)C(C)Oc1nc(F)c(Cl)c(N)c1Cl` (stereo not shown) [Compound 2-303], the “Activity level (growth inhibition rate), Digitaria sanguinalis” value in the assay with Digitaria sanguinalis is reported as 5 (Level 5: the growth inhibition rate is greater than 85%). For the same compound, the “Activity level (growth inhibition rate), Echinochloa crusgalli” value with Echinochloa crusgalli is reported as 5 (Level 5: the growth inhibition rate is greater than 85%). For the same compound, in assay [1], the “Activity level (growth inhibition rate), Abutilon theophrasti Medic.” value is 5 (Level 5: the growth inhibition rate is greater than 85%); the “Activity level (growth inhibition rate), Galium aparine” value is listed as 5 (Level 5: the growth inhibition rate is greater than 85%); the “Activity level (growth inhibition rate), Monochoria Vaginalis” value is recorded as 5 (Level 5: the growth inhibition rate is greater than 85%).

(Values after patent US12304890B2, “R-type pyridyloxycarboxylic acid, salt and ester derivative thereof, and preparation method therefor, and herbicidal composition and application thereof” (Qingdao Kingagroot Chemical Compound Co., Ltd., priority 2018, dated 2025).)
